From ChEMBL document CHEMBL1150219, “New co-metabolites of the streptazolin pathway” (2001)
Active and inactive are the calls of the source. The rule behind the calls is not given here.

Key:
[1] = tested on: HepG2; test: Cytotoxicity against human HepG2 cells; format: functional
[2] = tested on: MCF7; test: Cytotoxicity against human MCF7 cells; format: functional
[3] = Cytotoxicity against human KATO III cells; format: functional, KATO III cell
[4] = Cytotoxicity against human HMO2 cells; format: functional
[5] = tested on: HepG2; test: Cytotoxicity against human HepG2 cells at 50 umol/L; format: functional, cell-based
[6] = tested on: MCF7; test: Cytotoxicity against human MCF7 cells at 50 umol/L; format: functional, cell-based
[7] = tested on: HMO2; test: Cytotoxicity against human HMO2 cells at 50 umol/L; format: functional, cell-based

Row | Compound | GI50 [1] [µM] | TGI [1] [µM] | GI50 [2] [µM] | TGI [2] [µM] | GI50 [3] [µM] | TGI [3] [µM] | GI50 [4] [µM] | TGI [4] [µM] | Activity [5] | Activity [6] | Activity [7]
1 | C/C=C1/C2=CCCN3C(=O)O[C@H]([C@H]1O[C@@H]1OC[C@@H](O)[C@H](O)[C@H]1O)[C@H]23 | 0.3 | 5 | 10 | 30 | 0.7 | 1 | 0.15 | > 50 |  |  | 
2 | C/C=C1/C2=CCCN3C(=O)O[C@H]([C@H]1O)[C@H]23 |  |  |  |  |  |  |  |  | inactive | inactive | inactive
